Measurements from ChEMBL document CHEMBL1152762, “Medicinal chemistry approaches to the inhibition of dipeptidyl peptidase-4 for the treatment of type 2 diabetes” (Bioorg Med Chem, 2009).
Each block holds one compound with its values, some of them ahead of it.

Key:
[1] = Half life in Sprague-Dawley rat at 10 mg/kg, po; format: ADME, organism-based; design: dose 10 mg/kg, route oral; settings: in vivo
Dipeptidyl peptidase 4 [2] = biological target: T1, Dipeptidyl peptidase 4 (Rattus norvegicus, UniProt P14740)
T1 sequence (P14740 whole entry): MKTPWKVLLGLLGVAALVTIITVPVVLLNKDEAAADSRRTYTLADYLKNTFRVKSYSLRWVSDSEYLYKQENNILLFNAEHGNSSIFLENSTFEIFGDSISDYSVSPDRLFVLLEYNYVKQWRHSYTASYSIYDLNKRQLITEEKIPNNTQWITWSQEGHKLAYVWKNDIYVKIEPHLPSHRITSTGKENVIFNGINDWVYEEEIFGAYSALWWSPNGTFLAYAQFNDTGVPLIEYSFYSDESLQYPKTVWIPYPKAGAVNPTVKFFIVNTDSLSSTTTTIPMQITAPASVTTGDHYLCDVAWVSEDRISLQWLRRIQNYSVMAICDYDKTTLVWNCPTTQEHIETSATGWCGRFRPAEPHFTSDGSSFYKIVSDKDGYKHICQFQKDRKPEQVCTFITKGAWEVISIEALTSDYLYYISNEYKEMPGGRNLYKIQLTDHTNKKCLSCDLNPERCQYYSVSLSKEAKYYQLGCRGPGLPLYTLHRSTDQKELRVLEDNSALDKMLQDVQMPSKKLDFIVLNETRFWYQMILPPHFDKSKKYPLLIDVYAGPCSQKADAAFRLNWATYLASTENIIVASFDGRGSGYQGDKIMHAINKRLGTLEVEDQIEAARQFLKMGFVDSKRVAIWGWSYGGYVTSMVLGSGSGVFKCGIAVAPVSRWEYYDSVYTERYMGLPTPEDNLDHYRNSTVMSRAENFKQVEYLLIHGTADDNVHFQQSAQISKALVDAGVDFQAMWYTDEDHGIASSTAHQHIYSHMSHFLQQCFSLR

[3] = Oral bioavailability in Sprague-Dawley rat at 10 mg/kg; format: ADME, organism-based; settings: in vivo
Dipeptidyl peptidase 4 [4] = biological target: Dipeptidyl peptidase 4 (Homo sapiens, UniProt P27487)
Dipeptidyl peptidase 4 (Homo sapiens, UniProt P27487), sequence (P27487 whole entry): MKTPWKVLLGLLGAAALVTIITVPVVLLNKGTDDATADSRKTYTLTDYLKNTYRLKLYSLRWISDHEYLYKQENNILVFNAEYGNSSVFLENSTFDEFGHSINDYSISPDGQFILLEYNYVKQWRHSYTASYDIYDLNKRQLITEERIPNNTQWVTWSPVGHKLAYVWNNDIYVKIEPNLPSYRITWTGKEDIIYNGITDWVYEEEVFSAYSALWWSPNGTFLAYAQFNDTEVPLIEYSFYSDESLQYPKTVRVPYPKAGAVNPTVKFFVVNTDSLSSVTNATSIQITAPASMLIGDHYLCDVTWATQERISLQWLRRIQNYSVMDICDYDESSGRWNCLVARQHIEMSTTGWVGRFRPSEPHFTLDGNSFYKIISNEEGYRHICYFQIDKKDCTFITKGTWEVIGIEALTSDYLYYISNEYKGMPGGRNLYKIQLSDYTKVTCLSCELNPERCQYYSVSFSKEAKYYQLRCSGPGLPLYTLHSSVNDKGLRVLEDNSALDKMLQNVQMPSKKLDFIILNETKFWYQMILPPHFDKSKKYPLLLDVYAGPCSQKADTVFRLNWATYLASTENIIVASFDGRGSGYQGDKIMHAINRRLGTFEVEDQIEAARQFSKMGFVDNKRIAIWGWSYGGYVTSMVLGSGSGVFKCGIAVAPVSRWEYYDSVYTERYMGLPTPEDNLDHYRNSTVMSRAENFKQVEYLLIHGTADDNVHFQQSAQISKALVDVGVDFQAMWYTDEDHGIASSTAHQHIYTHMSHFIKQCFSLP

Prolyl endopeptidase FAP = biological target: T2, Prolyl endopeptidase FAP (Homo sapiens, UniProt Q12884); assay: Inhibition of FAP
T2 sequence (Q12884 whole entry): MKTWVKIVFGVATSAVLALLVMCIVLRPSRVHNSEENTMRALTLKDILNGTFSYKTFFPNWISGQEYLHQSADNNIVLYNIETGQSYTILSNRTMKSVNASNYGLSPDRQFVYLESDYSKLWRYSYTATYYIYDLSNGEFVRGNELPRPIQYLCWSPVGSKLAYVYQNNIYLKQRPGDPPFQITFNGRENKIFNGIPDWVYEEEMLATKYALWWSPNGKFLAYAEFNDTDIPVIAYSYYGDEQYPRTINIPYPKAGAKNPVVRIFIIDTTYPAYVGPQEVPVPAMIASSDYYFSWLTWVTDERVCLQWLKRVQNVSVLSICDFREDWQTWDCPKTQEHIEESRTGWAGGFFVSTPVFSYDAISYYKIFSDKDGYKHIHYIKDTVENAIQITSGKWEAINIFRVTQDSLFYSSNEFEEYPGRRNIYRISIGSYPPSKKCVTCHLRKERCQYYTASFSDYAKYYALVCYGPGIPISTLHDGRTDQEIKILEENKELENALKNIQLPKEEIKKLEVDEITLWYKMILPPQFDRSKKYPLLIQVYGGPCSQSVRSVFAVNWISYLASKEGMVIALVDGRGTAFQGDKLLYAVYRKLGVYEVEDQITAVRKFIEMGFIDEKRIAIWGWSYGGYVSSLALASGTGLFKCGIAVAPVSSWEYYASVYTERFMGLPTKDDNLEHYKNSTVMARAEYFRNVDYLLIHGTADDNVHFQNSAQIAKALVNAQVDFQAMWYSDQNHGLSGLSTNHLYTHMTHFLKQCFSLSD

Dipeptidyl peptidase 9 = Dipeptidyl peptidase 9 (Homo sapiens, UniProt Q86TI2); assay: Inhibition of DPP9
Dipeptidyl peptidase 9, sequence (Q86TI2 whole entry): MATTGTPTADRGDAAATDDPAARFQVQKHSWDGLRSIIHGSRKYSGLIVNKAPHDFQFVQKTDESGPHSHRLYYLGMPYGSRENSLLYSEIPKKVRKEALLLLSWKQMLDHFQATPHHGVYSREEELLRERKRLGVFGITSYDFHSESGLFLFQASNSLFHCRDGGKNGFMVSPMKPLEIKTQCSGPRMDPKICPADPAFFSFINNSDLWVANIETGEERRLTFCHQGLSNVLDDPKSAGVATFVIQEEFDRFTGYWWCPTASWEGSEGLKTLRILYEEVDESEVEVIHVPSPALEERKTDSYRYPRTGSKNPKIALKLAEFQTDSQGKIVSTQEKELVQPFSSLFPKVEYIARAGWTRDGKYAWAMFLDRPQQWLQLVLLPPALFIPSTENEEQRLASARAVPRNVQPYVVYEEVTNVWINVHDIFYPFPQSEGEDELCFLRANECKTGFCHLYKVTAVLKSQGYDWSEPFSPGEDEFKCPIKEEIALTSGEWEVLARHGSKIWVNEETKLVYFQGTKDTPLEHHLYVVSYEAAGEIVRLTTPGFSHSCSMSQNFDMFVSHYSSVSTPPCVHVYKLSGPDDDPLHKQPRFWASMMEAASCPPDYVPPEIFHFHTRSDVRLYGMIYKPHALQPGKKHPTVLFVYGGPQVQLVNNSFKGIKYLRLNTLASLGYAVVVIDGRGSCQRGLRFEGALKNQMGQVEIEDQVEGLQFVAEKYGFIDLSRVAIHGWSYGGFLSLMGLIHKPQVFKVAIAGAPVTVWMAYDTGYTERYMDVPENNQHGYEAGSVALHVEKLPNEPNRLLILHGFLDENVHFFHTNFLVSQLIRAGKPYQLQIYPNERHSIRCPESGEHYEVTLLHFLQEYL

Dipeptidyl peptidase 8 = Dipeptidyl peptidase 8 (Homo sapiens, UniProt Q6V1X1)
Dipeptidyl peptidase 8, sequence (Q6V1X1 whole entry): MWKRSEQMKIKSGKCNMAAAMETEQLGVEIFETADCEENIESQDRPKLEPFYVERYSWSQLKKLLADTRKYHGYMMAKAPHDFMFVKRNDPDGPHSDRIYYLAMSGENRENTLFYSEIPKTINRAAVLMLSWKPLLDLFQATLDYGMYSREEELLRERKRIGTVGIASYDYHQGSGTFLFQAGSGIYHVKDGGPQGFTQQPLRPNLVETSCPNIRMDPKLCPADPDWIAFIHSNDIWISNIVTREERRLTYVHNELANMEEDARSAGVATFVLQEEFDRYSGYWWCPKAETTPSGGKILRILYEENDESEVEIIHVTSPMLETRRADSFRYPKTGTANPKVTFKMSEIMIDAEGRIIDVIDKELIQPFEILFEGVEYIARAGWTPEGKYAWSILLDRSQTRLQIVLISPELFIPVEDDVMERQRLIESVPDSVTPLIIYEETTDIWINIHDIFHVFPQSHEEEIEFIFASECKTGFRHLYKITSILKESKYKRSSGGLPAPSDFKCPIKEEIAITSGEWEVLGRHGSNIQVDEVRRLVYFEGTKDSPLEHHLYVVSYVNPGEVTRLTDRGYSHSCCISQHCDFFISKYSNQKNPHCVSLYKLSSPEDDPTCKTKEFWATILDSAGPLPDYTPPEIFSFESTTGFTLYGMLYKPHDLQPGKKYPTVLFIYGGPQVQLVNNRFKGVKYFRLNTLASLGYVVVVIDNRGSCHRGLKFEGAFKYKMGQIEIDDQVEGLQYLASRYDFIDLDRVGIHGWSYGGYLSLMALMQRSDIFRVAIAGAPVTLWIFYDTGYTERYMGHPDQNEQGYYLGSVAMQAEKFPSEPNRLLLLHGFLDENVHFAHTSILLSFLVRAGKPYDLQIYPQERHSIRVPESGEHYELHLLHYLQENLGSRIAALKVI

Dipeptidyl peptidase 2 [5] = biological target: T3, Dipeptidyl peptidase 2 (Homo sapiens, UniProt Q9UHL4)
Rattus norvegicus [6] = species on record: Rattus norvegicus
[7] = Stability in pH 7.4 buffer; format: physicochemical
[8] = Selectivity for DPP4 over DPP8
Rattus norvegicus [9] = assay: Ex-vivo inhibition of DPP4 in rat plasma at 10 mg/kg, po after 12 hrs; format: functional
Mus musculus = assay: Reduction of glucose excursion in C57BL6/N mouse at 3 mg/kg, po; format: functional; design: scale not given: the % may be the effect or the level left
Dipeptidyl peptidase 2 [10] = biological target: T3, Dipeptidyl peptidase 2; assay: Inhibition of DPP7
Rattus norvegicus [11] = species on record: Rattus norvegicus; assay: animal or person; settings: Plasma, 4 h, read-out: INH
Rattus norvegicus [12] = species on record: Rattus norvegicus; assay: animal or person; settings: Plasma, 0.5 h, read-out: INH
Dipeptidyl peptidase 4 [13] = biological target: T1, Dipeptidyl peptidase 4; remark: listed apart in the source
[14] = Cmax in Wistar rat at 1 mg/kg after 10 mins; format: ADME, organism-based; design: dose 1 mg/kg; settings: in vivo
Rattus norvegicus [15] = species on record: Rattus norvegicus; assay: animal or person; settings: Plasma, po, 6 h, read-out: INH
Rattus norvegicus [16] = species on record: Rattus norvegicus; assay: animal or person; settings: Plasma, po, 10 h, read-out: INH
[17] = Oral bioavailability in cynomolgus monkey; format: ADME, organism-based, Macaca fascicularis; settings: in vivo
Dipeptidyl peptidase 4 [18] = biological target: Dipeptidyl peptidase 4 (Mus musculus, UniProt P28843); assay: Inhibition of mouse DPP4
Dipeptidyl peptidase 4 (Mus musculus, UniProt P28843), sequence (P28843 whole entry): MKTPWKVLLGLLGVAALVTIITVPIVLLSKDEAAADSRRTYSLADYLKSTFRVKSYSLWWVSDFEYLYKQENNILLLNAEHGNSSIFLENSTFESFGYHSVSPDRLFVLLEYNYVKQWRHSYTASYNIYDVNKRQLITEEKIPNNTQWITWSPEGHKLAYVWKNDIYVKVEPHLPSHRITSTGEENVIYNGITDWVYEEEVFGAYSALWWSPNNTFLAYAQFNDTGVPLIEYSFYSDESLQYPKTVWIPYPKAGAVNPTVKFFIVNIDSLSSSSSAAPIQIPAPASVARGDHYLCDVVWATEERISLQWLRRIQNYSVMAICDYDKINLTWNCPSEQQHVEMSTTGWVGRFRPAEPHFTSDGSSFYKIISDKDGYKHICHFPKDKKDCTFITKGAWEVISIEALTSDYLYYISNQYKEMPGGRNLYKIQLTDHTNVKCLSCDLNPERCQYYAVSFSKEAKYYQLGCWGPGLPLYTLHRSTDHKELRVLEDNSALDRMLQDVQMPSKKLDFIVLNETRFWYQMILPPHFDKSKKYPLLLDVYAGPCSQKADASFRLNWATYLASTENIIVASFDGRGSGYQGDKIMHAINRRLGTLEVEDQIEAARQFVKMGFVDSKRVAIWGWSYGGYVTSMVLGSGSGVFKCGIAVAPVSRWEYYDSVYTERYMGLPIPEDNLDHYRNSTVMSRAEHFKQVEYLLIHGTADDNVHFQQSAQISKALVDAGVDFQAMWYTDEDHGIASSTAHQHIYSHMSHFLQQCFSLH

Dipeptidyl peptidase 4 [19] = biological target: Dipeptidyl peptidase 4 (Sus scrofa, UniProt P22411); assay: Inhibition of pig kidney DPP4
Dipeptidyl peptidase 4 (Sus scrofa, UniProt P22411), sequence (P22411 whole entry): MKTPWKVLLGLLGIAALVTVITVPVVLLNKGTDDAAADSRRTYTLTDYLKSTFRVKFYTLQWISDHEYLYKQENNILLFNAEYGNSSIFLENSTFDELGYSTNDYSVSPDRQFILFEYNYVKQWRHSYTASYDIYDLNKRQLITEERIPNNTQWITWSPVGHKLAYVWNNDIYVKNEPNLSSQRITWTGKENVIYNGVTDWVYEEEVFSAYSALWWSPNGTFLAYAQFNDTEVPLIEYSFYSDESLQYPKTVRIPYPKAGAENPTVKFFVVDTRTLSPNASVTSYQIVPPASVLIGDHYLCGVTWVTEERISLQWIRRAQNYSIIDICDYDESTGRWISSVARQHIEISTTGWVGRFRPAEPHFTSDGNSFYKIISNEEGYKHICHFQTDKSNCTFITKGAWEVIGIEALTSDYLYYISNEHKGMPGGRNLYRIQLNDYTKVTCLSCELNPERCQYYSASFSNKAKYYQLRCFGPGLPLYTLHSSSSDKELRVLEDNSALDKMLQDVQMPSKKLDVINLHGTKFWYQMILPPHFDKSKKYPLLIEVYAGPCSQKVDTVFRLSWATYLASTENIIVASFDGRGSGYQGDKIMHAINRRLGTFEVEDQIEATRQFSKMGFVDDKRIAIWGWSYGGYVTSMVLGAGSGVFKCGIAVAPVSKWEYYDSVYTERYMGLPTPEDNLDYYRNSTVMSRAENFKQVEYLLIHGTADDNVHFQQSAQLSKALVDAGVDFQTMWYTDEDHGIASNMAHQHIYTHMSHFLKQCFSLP

Rattus norvegicus [20] = species on record: Rattus norvegicus; assay: animal or person; settings: Plasma, 6 h, read-out: INH

half-life [1]: 5.27 h
IC50 (Dipeptidyl peptidase 4 [2]): 0.0304 µM
bioavailability [3]: 83.9%
Compound: N#Cc1ccc(N[C@@H]2CN[C@H](C(=O)N3CCSC3)C2)nc1

IC50 (Dipeptidyl peptidase 4 [4]): 0.00048 µM
IC50 (Prolyl endopeptidase FAP): 21 µM
IC50 (Dipeptidyl peptidase 9): > 86 µM
IC50 (Dipeptidyl peptidase 8): > 100 µM
IC50 (Dipeptidyl peptidase 2 [5]): > 100 µM
Compound: CC(C)[C@H](Oc1ccc(CNC(=O)[C@@H]2CCCN2C(=O)C[C@H](N)Cc2cc(F)ccc2F)cc1)C(=O)O

Ki (Dipeptidyl peptidase 2 [5]): 0.125 µM
Compound: C[C@H](N)C(=O)N1CCC[C@H]1B(O)O

Compound: CC(c1nc(-c2ccc(S(C)(=O)=O)cc2Cl)no1)[C@H](N)C(F)=C1CCCC1.O=C(O)C(F)(F)F (stereo partly specified)
IC50 (Rattus norvegicus [6]): 62%

half-life [7]: > 48 h
Compound: N#C[C@@H]1CCCN1C(=O)[C@@H](N)C1CCCCC1

IC50 (Dipeptidyl peptidase 4 [4]): 0.251 µM
Selectivity ratio [8]: 53
Compound: CC(C)(C)C(NC(=O)C[C@@H](N)C(=O)N1CCC[C@H]1C#N)c1ccccc1 (stereo partly specified)

Compound: N#Cc1ccccc1Cn1c(N2CCC[C@@H](N)C2)nc2ccc(F)cc2c1=O
inhibition in vivo at 10 mg/kg (Rattus norvegicus [9]): 50%

Compound: N[C@H](C(=O)N1CC[C@H](F)C1)[C@H]1CC[C@H](NS(=O)(=O)c2ccc(F)cc2F)CC1
Activity (Mus musculus): 42%

IC50 (Dipeptidyl peptidase 4 [4]): 0.018 µM
Compound: CC(C)=CCN1C(C2CC[C@H]3NCC[C@@H]23)=NC2C1C(=O)N(CC(=O)c1ccccc1)C(=O)N2C (stereo partly specified)

IC50 (Dipeptidyl peptidase 2 [10]): 0.42 µM
IC50 (Dipeptidyl peptidase 4 [4]): 0.008 µM
Compound: O=C(CNC12CC3CC(CC(C3)C1)C2)N1CCC[C@H]1B(O)O

Compound: N#C[C@@H]1C[C@@H]2C[C@@H]2N1C(=O)[C@@H](N)C12CC3CC(CC(O)(C3)C1)C2 [SAXAGLIPTIN ANHYDROUS]
inhibition in vivo at 4 µmol/kg (Rattus norvegicus [11]): 87%
inhibition in vivo at 4 µmol/kg (Rattus norvegicus [12]): 87%

IC50 (Dipeptidyl peptidase 4 [13]): 0.00017 µM
Compound: N#Cc1ccc(N[C@@H]2CNC(C(=O)N3CCC[C@H]3C#N)C2)cc1C#N (stereo partly specified)

IC50 (Dipeptidyl peptidase 4 [4]): 7.69 µM
Compound: CC(N)/C(F)=C1\CCC[C@@H]1C#N (stereo partly specified)

Cmax [14]: 372 ng/mL
Compound: CC[C@H](C)[C@H](N)C(=O)N1C[C@@H](F)C[C@H]1C#N

Compound: Cc1ccc(O)c(C)c1[C@@H]1CN[C@H](C(=O)N2CCC[C@H]2C#N)C1
inhibition in vivo at 1 mg/kg (Rattus norvegicus [15]): 95%
inhibition in vivo at 1 mg/kg (Rattus norvegicus [16]): 83%

IC50 (Dipeptidyl peptidase 4 [4]): 6.03 µM
Compound: CC(N)/C(F)=C1\CCC[C@@H]1C#N (single isomer, unassigned; diastereomer 2)

IC50 (Dipeptidyl peptidase 4 [4]): 0.00228 µM
Compound: COc1ccccc1N1CCc2nc(C)c(CN)c(-c3ccc(Cl)cc3Cl)c2C1=O

bioavailability [17]: > 90%
Compound: N#C[C@@H]1CCCN1C(=O)CNC12CC3CC(CC(O)(C3)C1)C2 [VILDAGLIPTIN]

IC50 (Dipeptidyl peptidase 4 [18]): 0.0026 µM
Compound: CC1(NCC(=O)N2C[C@H](F)C[C@@H]2C#N)CCN(S(C)(=O)=O)CC1

Compound: N[C@H](C(=O)N1CCCC1)[C@H]1CC[C@H](NS(=O)(=O)c2ccc(F)cc2F)CC1
Activity (Mus musculus): 36%

IC50 (Dipeptidyl peptidase 9): > 100 µM
IC50 (Dipeptidyl peptidase 8): > 100 µM
IC50 (Dipeptidyl peptidase 2 [5]): > 100 µM
Compound: CN(C)C(=O)[C@@H](c1ccc(C2=CN3N=CNC3C=C2)cc1)[C@H](N)C(=O)N1CC[C@H](F)C1 (stereo partly specified)

IC50 (Dipeptidyl peptidase 4 [19]): 0.49 µM
IC50 (Dipeptidyl peptidase 4 [2]): 0.78 µM
Compound: N#Cc1ccc(NCCNCC(=O)N2N=CCC2C#N)nc1 (stereo unspecified)

Compound: COc1ccc(CS(=O)(=O)C(C)(C)[C@H](N)C(=O)N2C[C@@H](F)C[C@H]2C#N)cc1
inhibition in vivo at 1 mg/kg (Rattus norvegicus [20]): 84%
